Ten compounds from ChEMBL document CHEMBL3758125 (J Med Chem, 2016) can be followed below.

For test [1], the target named is T1, Cannabinoid receptor 1 (Homo sapiens, UniProt P21554). As to the kind of experiment: Negative allosteric modulator activity at human CB1R expressed in CHO-K1 cells assessed as inhibition of CP55,940-induced beta-arrestin recruitment preincubated for 30 mins followed by CP55,940 addition measured for 90 mins by PathHunter assay. Type of test: cell-based.
The target of test [2] is T1, Cannabinoid receptor 1. Put plainly: Negative allosteric modulator activity at human CB1R expressed in CHO-K1 cells assessed as inhibition of CP55,940-induced beta-arrestin recruitment preincubated for 30 mins followed by CP55,940 addition measured for 90 mins by PathHunter assay relative to control. Type of test: cell-based.
The target of test [3] is T1, Cannabinoid receptor 1. As to the kind of experiment: Negative allosteric modulator activity at human CB1R expressed in CHO-K1 cells assessed as effect on CP55,940-induced inhibition of forskolin-induced cAMP accumulation preincubated for 30 mins followed by CP55,940 addition measured for 30 mins by HitHunter assay. Type of test: functional, cell-based. Background: cAMP levels reflect the balance of adenylyl cyclase and phosphodiesterase activity.

The target of test [4] is T1, Cannabinoid receptor 1. Put plainly: Negative allosteric modulator activity at human CB1R expressed in CHO-K1 cells assessed as effect on CP55,940-induced inhibition of forskolin-induced cAMP accumulation preincubated for 30 mins followed by CP55,940 addition measured for 30 mins by HitHunter assay relative to control. It is filed as functional, cell-based.
The target in test [5] is T1, Cannabinoid receptor 1. Put plainly: Selectivity index, ratio of EC50 for human CB1R by cAMP assay to EC50 for human CB1R by beta-arrestin recruitment assay. Type of test: functional, single protein.
Test [6] addresses T1, Cannabinoid receptor 1. As to the kind of experiment: Positive allosteric modulator activity at human CB1R expressed in HEK293 cell membranes assessed as enhanced specific binding of [3H]CP55,940 at 500 nM pre-incubated for 60 mins before [3H]CP55,940 addition followed by drug wash-out by liquid scintillation spectrometric-based saturation binding assay.
Test [7] concerns the target T1, Cannabinoid receptor 1. As to the kind of experiment: Positive allosteric modulator activity at human CB1R expressed in HEK293 cell membranes assessed as enhanced binding of [3H]CP55,940 at 500 nM by liquid scintillation spectrometric analysis. The conditions noted are these: TDE = time-dependent effect.
The target in test [8] is Cannabinoid receptor 1 (Mus musculus) (UniProt P47746). Put plainly: Inverse agonist activity at CB1R in mouse brain membranes assessed as [35S]GTPgammaS binding at 100 nM and 1 uM preincubated for 60 mins prior to [35S]GTPgammaS addition by liquid scintillation spectrometric analysis. It is filed as functional, cell membranes. The conditions noted are these: Membrane. On the technique in general: GTPγS resists hydrolysis and so accumulates on activated G proteins.
Chain of Cannabinoid receptor 1 (Mus musculus) (P47746 whole entry): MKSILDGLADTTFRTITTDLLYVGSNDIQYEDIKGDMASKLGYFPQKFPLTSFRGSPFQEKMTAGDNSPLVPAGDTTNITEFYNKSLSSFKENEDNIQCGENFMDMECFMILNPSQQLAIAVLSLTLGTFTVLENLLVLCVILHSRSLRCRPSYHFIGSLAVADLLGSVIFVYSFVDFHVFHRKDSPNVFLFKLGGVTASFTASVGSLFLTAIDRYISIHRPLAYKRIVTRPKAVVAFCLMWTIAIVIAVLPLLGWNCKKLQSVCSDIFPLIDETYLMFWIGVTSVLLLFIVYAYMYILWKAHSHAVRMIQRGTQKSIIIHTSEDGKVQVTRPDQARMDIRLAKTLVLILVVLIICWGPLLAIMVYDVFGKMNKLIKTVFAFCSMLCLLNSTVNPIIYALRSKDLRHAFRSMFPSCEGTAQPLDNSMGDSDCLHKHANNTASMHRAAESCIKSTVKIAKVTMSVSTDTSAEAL

For test [9], the target named is T1, Cannabinoid receptor 1. Put plainly: Inverse agonist activity at human CB1R expressed in CHO-K1 cells assessed as inhibition [35S]GTPgammaS binding up to 1 uM preincubated for 60 mins prior to [35S]GTPgammaS addition by liquid scintillation spectrometric analysis. It is filed as functional, cell-based.
For test [10], the target named is T1, Cannabinoid receptor 1. As to the kind of experiment: Activity at human CB1R expressed in HEK293 cell membranes assessed as reduction in binding of [3H]CP55,940 at 500 nM after 90 to 120 mins by liquid scintillation spectrometric analysis.
For test [11], the target named is Cannabinoid receptor 1 (Mus musculus) (UniProt P47746). As to the kind of experiment: Activity at CB1R in mouse brain membranes assessed as inhibition of CP55,940-induced [35S]GTPgammaS binding at 100 nM and 1 uM preincubated for 60 mins prior to [35S]GTPgammaS addition by liquid scintillation spectrometric analysis relative to control. It is filed as functional, cell membranes. To be noted: Membrane.

For test [12], the target named is T1, Cannabinoid receptor 1. Put plainly: Positive allosteric modulator activity at human CB1R expressed in CHO cells assessed as enhanced binding of [3H]CP55,940 after 60 mins by liquid scintillation spectrometric analysis relative to control. It is filed as cell-based.
Test [13] addresses Cannabinoid receptor 1 (Mus musculus) (UniProt P47746). Put plainly: Negative allosteric modulator activity at CB1R in mouse brain membranes assessed as Emax for CP55,940-induced [35S]GTPgammaS binding at 1 uM preincubated for 60 mins prior to [35S]GTPgammaS addition by liquid scintillation spectrometric analysis relative to control (reference value: […]%). It is filed as functional, cell membranes. The conditions noted are these: Membrane.

For test [14] the target is unchanged. Put plainly: Negative allosteric modulator activity at CB1R in mouse brain membranes assessed as inhibition of CP55,940-induced [35S]GTPgammaS binding at 100 nM and 1 uM preincubated for 60 mins prior to [35S]GTPgammaS addition by liquid scintillation spectrometric analysis. To be noted: Membrane. It is filed as functional, cell membranes.
Test [15] has as its target T1, Cannabinoid receptor 1. Put plainly: Positive allosteric modulator activity at human CB1R expressed in CHO cells assessed as enhanced binding of [3H]CP55,940 after 60 mins by liquid scintillation spectrometric analysis. It is filed as cell-based.
Test [16] deals with Cannabinoid receptor 1 (Mus musculus) (UniProt P47746). The conditions noted are these: Brain, Membrane, at 100 nM.
Test [17] has the same target. As to the kind of experiment: Agonist activity at CB1R in mouse brain membranes assessed as [35S]GTPgammaS binding at 100 nM and 1 uM preincubated for 60 mins prior to [35S]GTPgammaS addition by liquid scintillation spectrometric analysis. It is filed as functional, cell membranes. To be noted: Membrane.
For test [18], the target named is T1, Cannabinoid receptor 1. Put plainly: Agonist activity at human CB1R expressed in CHO-K1 cells assessed as inhibition of CP55,940-induced [35S]GTPgammaS binding up to 1 uM preincubated for 60 mins prior to [35S]GTPgammaS addition by liquid scintillation spectrometric analysis. Type of test: functional, cell-based.
Test [19] deals with T1, Cannabinoid receptor 1. Put plainly: Inverse agonist activity at human CB1R expressed in CHO-K1 cells assessed as [35S]GTPgammaS binding at 10 uM preincubated for 60 mins prior to [35S]GTPgammaS addition by liquid scintillation spectrometric analysis. It is filed as functional, cell-based.
The target of test [20] is Cannabinoid receptor 1 (Mus musculus) (UniProt P47746). Put plainly: Antagonist activity at CB1R in mouse brain membranes assessed as inhibition of CP55,940-induced [35S]GTPgammaS binding at 1 uM preincubated for 60 mins prior to [35S]GTPgammaS addition by liquid scintillation spectrometric analysis. Type of test: functional, cell membranes. To be noted: Membrane.

Activity calls are given as the source filed them. The rule behind the calls is not given here.

T1 sequence (P21554 whole entry): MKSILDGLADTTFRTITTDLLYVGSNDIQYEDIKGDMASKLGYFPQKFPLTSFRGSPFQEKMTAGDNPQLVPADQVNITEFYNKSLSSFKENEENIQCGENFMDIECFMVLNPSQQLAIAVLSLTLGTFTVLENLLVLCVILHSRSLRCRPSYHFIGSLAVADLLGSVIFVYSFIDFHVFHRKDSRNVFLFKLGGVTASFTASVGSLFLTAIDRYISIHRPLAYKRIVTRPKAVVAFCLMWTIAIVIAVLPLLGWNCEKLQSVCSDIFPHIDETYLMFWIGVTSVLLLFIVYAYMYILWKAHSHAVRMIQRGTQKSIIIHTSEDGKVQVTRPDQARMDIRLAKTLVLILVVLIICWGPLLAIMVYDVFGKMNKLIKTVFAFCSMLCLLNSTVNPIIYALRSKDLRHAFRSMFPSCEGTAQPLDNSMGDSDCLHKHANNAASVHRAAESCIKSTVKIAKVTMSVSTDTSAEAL

Turning to `[N-]=[N+]=Nc1ccc(NC(=O)Nc2cccc(-c3cccc(N4CCCC4)n3)c2)cc1`, the EC50 (in general, the concentration needed to bring the measured effect to its halfway point) on Cannabinoid receptor 1 [1] was 28.2 nM; on Cannabinoid receptor 1 [3], 166 nM. Also, the Emax (as a rule, the maximal effect, on the per cent scale that the assay sets) is 105% on Cannabinoid receptor 1 [2] and 103% at Cannabinoid receptor 1 [4]. Besides, the Ratio EC50 at Cannabinoid receptor 1 [5] came out at 3.

Take `CCc1c(C(=O)NCCc2ccc(N3CCCCC3)cc2)[nH]c2ccc(N=C=S)cc12`: at Cannabinoid receptor 1 [6], the fold change (FC) came to 2.25. For the same compound, the results for the EC50 on Cannabinoid receptor 1 [1], on Cannabinoid receptor 1 [3] and at Cannabinoid receptor 1 [15] were 2.09 nM, 174 nM and 19.6 nM, respectively. Moreover, the Emax is 103% on Cannabinoid receptor 1 [2]; 87.8% in test [11]; 116% on Cannabinoid receptor 1 [12]; 11.2% in test [13]; 111% on Cannabinoid receptor 1 [4]; 71.7% in test [16]. Also, at Cannabinoid receptor 1 [7], the Activity entry is “tde”. Further, the result (in [8]; on Cannabinoid receptor 1 [9]; in test [17]; at Cannabinoid receptor 1 [18]) was inactive. The inhibition entry at Cannabinoid receptor 1 [10] was “Active”. Besides, the inhibition result in [14] is “Dose-dependent effect”. Further, the Ratio EC50 on Cannabinoid receptor 1 [5] turned out to be 14.

As for `O=C(Nc1ccc(N=C=S)cc1)Nc1cccc(-c2cccc(N3CCCC3)n2)c1`, at Cannabinoid receptor 1 [1], the EC50 was determined as 42.9 nM. Moreover, the Emax on Cannabinoid receptor 1 [2] is 106%; on Cannabinoid receptor 1 [4], 78.2%. Further, on Cannabinoid receptor 1 [5], the Ratio EC50 amounted to 3.

Turning to `[N-]=[N+]=NCCc1c(C(=O)NCCc2ccc(N3CCCCC3)cc2)[nH]c2ccc(Cl)cc12`, the Emax at Cannabinoid receptor 1 [2] was 105%; at Cannabinoid receptor 1 [4], 96.8%. For the same compound, the EC50 at Cannabinoid receptor 1 [3] is 1120 nM. For the same compound, the Ratio EC50 at Cannabinoid receptor 1 [5] was 14.

With `CCCCCCC(C)(C)c1ccc([C@@H]2C[C@H](O)CC[C@H]2CCCO)c(O)c1`, the Emax at Cannabinoid receptor 1 [12] is -90.1%.

As for `CCc1c(C(=O)NCCc2ccc(N3CCCCC3)cc2)[nH]c2ccc(N=[N+]=[N-])cc12`, the Emax at Cannabinoid receptor 1 [2] is 105%; on Cannabinoid receptor 1 [4], 87.1%. Also, the Ratio EC50 on Cannabinoid receptor 1 [5] is 14.

Take `O=C(Nc1ccc(C(=O)c2ccccc2)cc1)Nc1cccc(-c2cccc(N3CCCC3)n2)c1`: the EC50 on Cannabinoid receptor 1 [1] is 683 nM; at Cannabinoid receptor 1 [3] it was over 10000 nM. The Emax came to 77.4% on Cannabinoid receptor 1 [2] and 28.1% on Cannabinoid receptor 1 [4]. Also, at Cannabinoid receptor 1 [5], the Ratio EC50 came to 3.

Turning to `O=C(NCCc1ccc(N2CCCCC2)cc1)c1[nH]c2ccc(Cl)cc2c1CCN=C=S`, the EC50 at Cannabinoid receptor 1 [1] was 209 nM; at Cannabinoid receptor 1 [3], over 10000 nM. Also, the Emax at Cannabinoid receptor 1 [2] is 107%; at Cannabinoid receptor 1 [4], -8.84%. Moreover, the Ratio EC50 on Cannabinoid receptor 1 [5] came to 14.

`CCc1c(C(=O)NCCc2ccc(N3CCCCC3)cc2)[nH]c2ccc(Cl)cc12`: the outcome at Cannabinoid receptor 1 [6] was inactive. Further, the EC50 on Cannabinoid receptor 1 [1] was found to be 9.05 nM; on Cannabinoid receptor 1 [3] it was 324 nM; on Cannabinoid receptor 1 [15], 83 nM. The Emax was 105% at Cannabinoid receptor 1 [2], 109% at Cannabinoid receptor 1 [12], 32.4% in [13] and 78.1% on Cannabinoid receptor 1 [4]. Also, the result on Cannabinoid receptor 1 [19] was Active. Besides, the inhibition result in test [20] is “Active”.

With `O=C(Nc1ccc(Cl)cc1)Nc1cccc(-c2cccc(N3CCCC3)n2)c1`, the Emax came out at 106% at Cannabinoid receptor 1 [2] and 115% on Cannabinoid receptor 1 [4].
